Results from patent US6080791A, “Method of treating a viral condition by inhibiting membrane fusion” (priority 1992, dated 2000).
Where two headings read alike, the source gives them in different places.

Tests used:
[1] = molecular target: hemagglutinin (BHA), fusion peptide exposure (Influenza A virus (A/X-31(H3N2)), UniProt P03438); type: biochemical, C22 / X31 influenza virus (H3N2)
low pH BHA = assay: SPA POST control (nonspecific quenching); parameters: species or system C22 / X31 influenza virus (H3N2)
Method: The compounds being screened by SPA are present during scintillation counting. Some of the chemicals, particularly those that are highly colored, quench the detection of radioactivity. A control ("POST") distinguishes whether apparent inhibition arises from inhibition of the conformational change or from nonspecific effects. The test compound is added to a sample of BHA that had previously been acidified and reneutralized. The mixture is then precipitated as usual. Since the BHA treated in this manner is known to be in the low pH conformation, a reduction in measurable cpm compared to controls with ligand omitted proves the compound interferes with the detection system.
^3 H-Leu BHA was diluted to 10,000 cpm (counts per minute) per 200 μl in MSSH buffer (10 mM HEPES, 10 mM MES, 10 mM succinate, 0.10 M NaCl, pH 7.0) containing 0.1% NP40. Protein was incubated with the specified concentration of trial compound for 25 minutes at RT. The same volume of solvent used to dissolve the compound was added to control samples and the final concentration of DMSO in all solutions was 0.67% v/v. A predetermined amount of 1N HAc was added to bring the reactions to the appropriate pH (usually pH 5.0). Following a 5 minute (unless specified otherwise) incubation at RT, reactions were reneutralized with 1N NaOH. For POST controls, compounds were added to the appropriate concentration after reneutralization. 200 μL aliquots of the protein solution were added to scintillation vials containing 100 μl protein A-SPA beads (Amersham), 5% fetal bovine serum (FBS), and antibody. Vials were incubated overnight at RT with constant shaking. Each reaction used 10 μl of fusion peptide antiserum diluted 1:10 with 50% glycerol. Cpm were detected in a Beckman LS3801 scintillation counter without addition of liquid scintillant.
Apparent inhibition due to nonspecific effects was quantitated from the POST controls with the equation:
observed cpm=true cpm*quench factor

[2] = tested on: hemagglutinin-mediated hemolysis of human red blood cells; assay: Hemolysis (HEM) assay; type: cell-based, C22 influenza virus; human red blood cells; conditions: for inhibition at 1000 µM: log conc -3 (M)
hemoglobin = assay: Hb control (quenching of OD570 of hemoglobin); parameters: species or system human
in vitro = conditions: dog, mdck
Method: The ELISA-based assay described below (EIA antiviral assay) was used to measure antiviral activity. Cell viability was measured in parallel to distinguish inhibition of viral replication from toxicity.
Infections of MDCK2 cells with virus, compounds, and DMSO were set up identically as for the EIA assay. Following the 15 hour incubation, test compounds were washed away with PBS. 50 μl of MDCK2 growth media and 25 μl 2 mg/ml 3-(4,5-dimethylthiazol-2-yl)-2,5-diphenyl tetrazolium bromide (Sigma) in PBS were added to each well. Plates were returned to 37° C., 5% CO2 for 4 hrs. Crystals were broken up by vigorous mixing following addition of 80 μl isopropanol/0.04 N HCl. After incubation for 30 mins at RT, OD570 was read on an ELISA reader. % Inhibition is the % reduction of OD570 in the wells infected with compound compared to otherwise identical samples with compound omitted.

C22 virus in MDCK2 cells = assay: microbe, parasite or virus in culture; conditions: unidentified influenza virus
[3] = unidentified influenza virus, Erythrocyte, read-out: hemolysis % ↓ OD
[4] = MDCK2, 15 h, read-out: infectivity % inhibition
[5] = unidentified influenza virus, Erythrocyte, 0.25 h, Table 6, 10^-3 = 1 mM, low pH 15 minutes, read-out: IC50 hemolysis

hemagglutinin (BHA), fusion peptide exposure (Influenza A virus (A/X-31(H3N2)), UniProt P03438), sequence (P03438 whole entry, looked up, the tested form may be a part): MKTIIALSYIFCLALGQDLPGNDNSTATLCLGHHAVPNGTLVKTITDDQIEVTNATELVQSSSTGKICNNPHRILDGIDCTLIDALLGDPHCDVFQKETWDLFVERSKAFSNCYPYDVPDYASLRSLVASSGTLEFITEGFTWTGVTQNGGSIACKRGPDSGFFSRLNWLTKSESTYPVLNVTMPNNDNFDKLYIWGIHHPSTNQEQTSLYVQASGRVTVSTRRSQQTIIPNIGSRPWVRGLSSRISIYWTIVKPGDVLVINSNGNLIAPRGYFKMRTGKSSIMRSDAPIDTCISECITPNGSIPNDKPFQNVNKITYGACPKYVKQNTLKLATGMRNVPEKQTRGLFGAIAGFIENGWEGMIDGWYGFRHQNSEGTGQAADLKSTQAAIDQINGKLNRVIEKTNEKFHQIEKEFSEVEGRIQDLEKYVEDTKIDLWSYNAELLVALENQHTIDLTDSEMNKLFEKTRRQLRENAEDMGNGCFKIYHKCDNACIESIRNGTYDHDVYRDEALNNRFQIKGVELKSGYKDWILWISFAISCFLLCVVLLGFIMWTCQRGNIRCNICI

Oc1ccc(O)c2c1C1C=CC2C1 [Compound 83A, 5,8-dihydro-5,8-methano-1,4-naphthalenediol]
SPA activity [1]: significantly higher activity | % inhibition, POST control (low pH BHA; log conc -3 (M)): 0.5 ± 1.1% | % inhibition, POST control (low pH BHA; log conc -4 (M)): -0.9 ± 1.5% | % inhibition, POST control (low pH BHA; log conc -5 (M)): -0.5% | % inhibition, POST control (low pH BHA; log conc -6 (M)): 10.8%

COC(=O)C1C2C=CC(C2)C1C(=O)OC (stereo not drawn) [Compound 85, dimethylbicyclo[2.2.1]-5-heptene-2,3-dicarboxylate]
inhibition in the SPA assay ([1]; 1 μM-1 mM): showed no inhibition

O=C(O)C1C2C=CC(O2)C1C(=O)O (stereo not drawn) [Compound 86, 3,6-endoxo-1,2,3,6-tetrahydrophthalic acid]
inhibition in the SPA assay ([1]; 1 μM-1 mM): showed no inhibition | activity note in Table 7 ([1]; Table 7): inactive

COC(=O)C1C2C=CC(C2)C1C(=O)O (stereo not drawn) [Compound 87, 5-norbornene-2,3-dicarboxylic acid monomethyl ester]
inhibition in the SPA assay ([1]; 1 μM-1 mM): showed no inhibition

CC(=O)OC1CC2CC1C1C3C=CC(C3)C21 (stereo not drawn) [Compound 88, 1,2,3,4,4A,5,8,8A-octahydro-1,4:5,8-dimethanonaphth-2-yl acetate]
inhibition in the SPA assay ([1]; 1 μM-1 mM): showed no inhibition | activity note in Table 7 ([1]; Table 7): inactive

O=C(O)[C@@H]1[C@H](C(=O)O)[C@@H]2C=C[C@H]1C2 [Compound 89, cis-5-norbornene-endo-2,3-dicarboxylic acid]
inhibition in the SPA assay ([1]; 1 μM-1 mM): showed no inhibition | activity note in Table 7 ([1]; Table 7): inactive

ClC1(Cl)C2CC3C4C=CC(C4)C3C21 (stereo not drawn) [Compound 92, 5,5-dichlorotetracyclo-[6.2.1.0,2,7.0.4.6] undec-9-ene]
inhibition in the SPA assay ([1]; 1 μM-1 mM): showed no inhibition

O=C1C2C3C=CC(C3)C2C(=O)N1O (stereo not drawn) [Compound 94, N-hydroxy-5-norbornene-2,3-dicarboximide]
inhibition in the SPA assay ([1]; 1 μM-1 mM): showed no inhibition | activity note in Table 7 ([1]; Table 7): inactive

CN1C(=O)C2C3C=CC(C3)C2C1=O (stereo not drawn) [Compound 95, N-methyl-5-norbornene-2,3-dicarboximide]
inhibition in the SPA assay ([1]; 1 μM-1 mM): showed no inhibition | activity note in Table 7 ([1]; Table 7): inactive

OC1CC2CC1C1C3C=CC(C3)C21 (stereo not drawn) [Compound 96, 1,2,3,4,4A,5,8,8A-octahydro-1,4:5,8-dimethano-2-naphthol]
inhibition in the SPA assay ([1]; 1 μM-1 mM): showed no inhibition

COC(=O)C1C=CCC2C(=O)C=CC(=O)C12 (stereo not drawn) [Compound 97, methyl 5,8-dioxo-1,4,4A,5,8,8A-hexahydro-1-naphthalenecarboxylate]
inhibition of hemolytic activity [2]: apparently inhibited hemolytic activity | IC50 ([2]; unidentified influenza virus, Erythrocyte, Table 7, preliminary results, read-out: HEM, negative log of IC50 (preliminary results) (converted)): 100 µM | inhibition at 1000 µM [2, 3]: 102 ± 5.8% | inhibition at 100 µM ([2]; unidentified influenza virus, Erythrocyte, log conc -4 (M), read-out: hemolysis % ↓ OD): 94.6% | inhibition at 10 µM ([2]; unidentified influenza virus, Erythrocyte, log conc -5 (M), read-out: hemolysis % ↓ OD): 23.7% | inhibition at 1 µM ([2]; unidentified influenza virus, Erythrocyte, log conc -6 (M), read-out: hemolysis % ↓ OD): 6.6% | Hb control % ↓ OD (hemoglobin; log conc -3 (M)): 55.0 ± 13.3% | Hb control % ↓ OD (hemoglobin; log conc -4 (M)): 37.6 ± 4.9% | Hb control % ↓ OD (hemoglobin; log conc -5 (M)): 31% | Hb control % ↓ OD (hemoglobin; log conc -6 (M)): 13.0% | cytotoxicity at 15 h, 1 µM (in vitro): -3.1 ± 7.9% | cytotoxicity at 15 h, 10 µM (in vitro): 32.9 ± 30.9% | cytotoxicity at 15 h, 100 µM (in vitro): 95.9 ± 8% | inhibition at 1 µM (C22 virus in MDCK2 cells; [4]): -4.7 ± 9.4% | inhibition at 10 µM (C22 virus in MDCK2 cells; [4]): 92.6 ± 12.7% | IC50 (C22 virus in MDCK2 cells; MDCK2, read-out: INF, negative log of IC50 (preliminary results) (converted)): 1 to 10 µM

O=C(O)C1C2C=CC(C2)C1C(=O)Nc1ccccc1 (stereo not drawn) [Compound 98, 3-(N-phenylcarbamoyl)-5-norbornen-2-carboxylic acid]
inhibition in the SPA assay ([1]; 1 μM-1 mM): showed no inhibition

O=C1NC(=O)c2ccccc21 [Compound 100, phthalimide]
inhibition in the SPA assay ([1]; 1 μM-1 mM): showed no inhibition | activity note in Table 7 ([1]; Table 7): inactive

N#Cc1c(O)ccc(O)c1C#N [Compound 103, 2,3-dicyanohydroquinone]
inhibition in the SPA assay ([1]; 1 μM-1 mM): showed no inhibition | activity note in Table 7 ([1]; Table 7): inactive

Oc1ccc(O)cc1 [Compound 104, hydroquinone]
activity note in Table 7 [1]: inactive | inhibition in the SPA assay [1]: showed no inhibition

Oc1cccc2ccccc12 [Compound 106, 1-naphthol]
inhibition in the SPA assay ([1]; 1 μM-1 mM): showed no inhibition | activity note in Table 7 ([1]; Table 7): inactive

O=c1[nH][nH]c(=O)c2ccccc12 [Compound 108, phthalhydrazide]
inhibition in the SPA assay ([1]; 1 μM-1 mM): showed no inhibition | activity note in Table 7 ([1]; Table 7): inactive

OC1=CCC2C3C=CC(C3)C12 (stereo not drawn) [Compound 109, hydroxydicyclopentadiene]
inhibition in the SPA assay ([1]; 1 μM-1 mM): showed no inhibition | activity note in Table 7 ([1]; Table 7): inactive

Cl.N=C(N)Sc1cc(O)ccc1O [Compound 112, 2-(2,5-dihydroxyphenyl)-2-thiopseudourea hydrochloride]
% inhibition, sample [1]: 40.1%

CC1=CC(=O)c2ccccc2C1=O [Compound 118, 2-methyl-1,4-naphthoquinone]
inhibition in the SPA assay ([1]; 1 μM-1 mM): showed no inhibition | activity note in Table 7 ([1]; Table 7): inactive

O=C1C=CC(=O)c2c(O)cccc21 [Compound 119, 5-hydroxy-1,4-naphthoquinone]
inhibition in the SPA assay ([1]; 1 μM-1 mM): showed no inhibition | activity note in Table 7 ([1]; Table 7): inactive | cytotoxicity at 15 h, 100 µM (in vitro): 97.8%

CCOC(=O)c1c(C)cc(O)cc1O [Compound 122, ethyl 2,4-dihydroxy-6-methylbenzoate]
inhibition in the SPA assay ([1]; 1 μM-1 mM): showed no inhibition | activity note in Table 7 ([1]; Table 7): inactive

Oc1cccc2c(O)cccc12 [Compound 126, 1,5-naphthalenediol]
inhibition of hemolytic activity [2]: apparently inhibited hemolytic activity | IC50 [2, 5]: 1000 µM | IC50 ([2]; unidentified influenza virus, Erythrocyte, Table 7, read-out: HEM, negative log of IC50 (converted)): 1000 µM | inhibition at 1000 µM [2, 3]: 101 ± 7.6% | Hb control % ↓ OD (hemoglobin; log conc -3 (M)): 54.4 ± 3.7% | cytotoxicity at 15 h, 1 µM (in vitro): -6.9 ± 4% | cytotoxicity at 15 h, 10 µM (in vitro): -9.2 ± 0.6% | cytotoxicity at 15 h, 100 µM (in vitro): -7.6 ± 7.3% | inhibition at 1 µM (C22 virus in MDCK2 cells; [4]): 3.8 ± 5.5% | inhibition at 10 µM (C22 virus in MDCK2 cells; [4]): 7.4 ± 1.8% | inhibition at 100 µM (C22 virus in MDCK2 cells; [4]): 35.6 ± 0.6% | IC50 (C22 virus in MDCK2 cells; MDCK2, read-out: IC50 infectivity): > 100 µM | IC50 (C22 virus in MDCK2 cells; MDCK2, read-out: INF, negative log of IC50 (converted)): > 100 µM

Oc1cccc2cccnc12 [Compound 127, 8-hydroxyquinoline]
activity note in Table 7 [1]: inactive | inhibition in the SPA assay [1]: showed no inhibition

O=C1C=C(Br)C(=O)c2ccccc21 [Compound 135, 2-bromo-1,4-naphthoquinone]
inhibition of hemolytic activity [2]: did not | IC50 [2, 5]: > 1000 µM | inhibition at 1000 µM [2, 3]: 80.3% | Hb control % ↓ OD (hemoglobin; log conc -3 (M)): 75.2%
